Source: PubChem BioAssay AID2060489 (Molecular Pharmacology Branch, DTP, NCI, 2025)
“And” between values parts separate entries of the source, which are not always exact repeats. Equal values may be shown once.

Tested on: 922993-354-T-J3-PDC complex spheroids, viability
Assay: Anticancer human tumor 922993-354-T-J3-PDC patient-derived endometrial carcinoma cell line growth inhibition [GQUAD]
Conditions: for viability, T/C: stronger effect = lower value
Description: DNA G-quadruplex Stabilizer Agents in Combinations in Complex Spheroids
A high-throughput screen of multi-cell type tumor spheroids was designed to identify active combinations of DNA G-quadruplex stabilizer agents and targeted small molecules. Complex spheroids include a stromal component modeled by human endothelial cells (HUVEC) and fibroblasts modeled by human mesenchymal stem cells (MSCs). The concentration ranges selected for each drug and investigational agent were based upon clinically achievable concentrations if the clinical Cmax of the agent was known.
Compounds. The drugs and investigational agents: pidnarulex (CX-5461; NSC782164), APTO-253 (NSC789042), BRACO-19 (NSC847499), peposertib (NSC802822), ceralasertib (NSC780249), elimusertib (NSC800525), camonsertib (NSC841442), AZD-1390 (NSC803789), olaparib (NSC753686), talazoparib (NSC767125), ART-558 (NSC835418), sotorasib (NSC818433), MRTX-1133 (NSC836407), SN-38 (NSC673596), topotecan (NSC609699), etoposide (NSC141540), doxorubicin (NSC123127), gemcitabine (NSC613327), 5-fluorouracil (NSC19893), paclitaxel (NSC125973), vemurafenib (NSC761431), panobinostat (NSC761190), R-306465 (JNJ-16241199; NSC773264), adavosertib (NSC754352), TP-3654 (NSC805149), carboplatin (NSC241240), KSQ-4279 (NSC840948), and staurosporine (NSC755774) were obtained from the National Cancer Institute (NCI) Developmental Therapeutics Program Chemical Repository (34). The FDA-approved anticancer drug set is available from the NCI Developmental Therapeutics Program. […] The stock solutions were prepared in dimethyl sulfoxide (DMSO, Sigma-Aldrich, St. Louis, MO, cat. D2650) at 800-fold the tested concentration and stored at -70 degrees C prior to their use. All drugs and investigational agents were tested over a range starting from a high concentration at or near the clinical Cmax and decreasing in half-log increments. If the clinical Cmax for an agent had not been determined, the highest concentration tested was 10 microM.
2.3 Cell Culture. All cells were maintained in an incubator at 37 degrees C and 5% CO2 with 95% humidity. The PDC lines were cultured according to standard operating procedures established by the NCI PDMR. All PDCs were thawed and cultured in Matrigel-coated flasks prepared with a working solution of 1X Ham's F-12 nutrient mix, without supplementation (Invitrogen, cat. 11765054), 100 U/mL penicillin-streptomycin (Invitrogen, cat. 15140122), and 2.5% Matrigel (Corning Inc., cat. 354248) for the first three passages. The 857933-349-R-J2-PDC line was cultured in 6C/Colon 1B media, which includes advanced DMEM/F-12 (Thermo Fisher Scientific, cat. 12634028), 10 mM HEPES (Thermo Fisher Scientific, cat. 15630080), 1X GlutaMAX supplement (Thermo Fisher Scientific, cat. 35050061), 0.1 mg/mL primocin (InvivoGen, cat. ant-pm-2), 10% defined fetal bovine serum, heat inactivated (HyClone Laboratories Inc., cat. SH30070.03HI), 50% L-WRN conditioned media (ATCC, cat. CRL-3276), 1.25 mM N-Acetyl-L-cysteine (Sigma-Aldrich, cat. A9165), 10 mM nicotinamide (Sigma-Aldrich, cat. N0636), 1X B-27 supplement (Thermo Fisher Scientific, cat. 17504044), 1X N-2 supplement (Thermo Fisher Scientific, cat. 17502048), 10 microM Y-27632 dihydrochloride (Tocris Bioscience, cat. 1254), and 50 ng/mL human EGF recombinant protein (Thermo Fisher Scientific, cat. PHG0311). The 485176-168-R4-J1-PDC line was cultured in Panc media, which includes all 6C/Colon 1B media components plus 100 ng/mL human FGF-10 (Thermo Fisher Scientific, cat. 100-26), 500 nM SB-431542 (Selleckchem, cat. S1067), and gastrin (Tocris, cat. 3006).
[…]
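Also: spheroids exposed to compounds for seven days.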
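For viability, T/C in this document: 100% = DMSO vehicle control viability.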

SMILES	viability, T/C (compound 0.0316 µM)	viability, T/C (compound 0.1 µM)	viability, T/C (compound 0.316 µM)	viability, T/C (compound 1 µM)	viability, T/C (compound 3.16 µM)	viability, T/C (compound 10 µM)	IC50 (curve of compound)	viability, T/C (compound 0.000999 µM)	viability, T/C (compound 0.00316 µM)	viability, T/C (compound 0.00999 µM)	viability, T/C (compound 0.0999 µM)	IC50 (compound alone, run of 03/26/2024) [µM]
C#Cc1c(F)ccc2cc(O)cc(-c3ncc4c(N5CC6CCC(C5)N6)nc(OCC56CCCN5CC(F)C6)nc4c3F)c12 (stereo unspecified)	84.5% and 92.3% and 99.3%	82.8% and 84% and 92.6%	89.6% and 103% and 84.7%	92.7% and 82.5% and 106%	76.5% and 96.3% and 94.4%	96.1% and 82.3% and 91.5%	> 10 µM					
C=CC(=O)N1CCN(c2nc(=O)n(-c3c(C)ccnc3C(C)C)c3nc(-c4c(O)cccc4F)c(F)cc23)C(C)C1 (stereo unspecified)	101% and 110% and 99.2%	88.4% and 88.3% and 112%	102% and 124% and 99.9%	91.4% and 97.3% and 95.3%	93.3% and 95.4% and 128%	97.9% and 97.8% and 89.3%	> 10 µM					
C=CCn1c(=O)c2cnc(Nc3ccc(N4CCN(C)CC4)cc3)nc2n1-c1cccc(C(C)(C)O)n1	79.8% and 93.2% and 78.9%	83.2% and 85.1% and 115%	107% and 109% and 113%	97.1% and 94.7% and 90.2%	66.1% and 73.2% and 82.1%	14.4% and 13.4% and 27.5%	4.52 µM and 4.95 µM and 6.19 µM					
CC(=O)O[C@H]1C(=O)[C@@]2(C)[C@H]([C@H](OC(=O)c3ccccc3)[C@]3(O)C[C@H](OC(=O)[C@H](O)[C@@H](NC(=O)c4ccccc4)c4ccccc4)C(C)=C1C3(C)C)[C@]1(OC(C)=O)CO[C@@H]1C[C@@H]2O	109% and 89.5% and 121%	95% and 93% and 85.9%	84.9% and 103% and 93.4%	111% and 108% and 102%	75.6% and 78.7% and 84.9%	36.8% and 47.7% and 50%	6.76 µM and 9.18 µM and > 10 µM					
CC(C)(O)C1CCC(Nc2ccc3ncc(-c4cccc(C(F)(F)F)c4)n3n2)CC1 (stereo unspecified)	106% and 88.2% and 93.2%	81% and 82.6% and 81.6%	89.6% and 84.6% and 88.7%	82.9% and 101% and 90.8%	78.8% and 68.7% and 81.9%	79.6% and 68% and 98.6%	> 10 µM					
CC(C)n1c(=O)n(C)c2cnc3cc(F)c(-c4ccc(OCCCN5CCCCC5)nc4)cc3c21	96.3% and 98.6% and 87.9%	105% and 85.5% and 77.3%	70.1% and 91.7% and 63.2%	96% and 84.2% and 81.9%	77.9% and 79.6% and 84.8%	49.7% and 55.9% and 41.8%	> 10 µM and 7.75 µM					
CC1COCCN1c1cc(-c2ccnn2C)c2ccnc(-c3ccn[nH]3)c2n1 (stereo unspecified)	83.5% and 95% and 87.4%	71.5% and 63.7% and 70.4%	48.3% and 41.6% and 62.9%	22.1% and 12.8% and 28.7%	19.6% and 22% and 23.4%	16.8% and 19.2% and 17.7%	0.273 µM and 0.184 µM and 0.451 µM					
CC1COCCN1c1cc(C2(O)CC3CCC(C2)O3)c2cnn(-c3ccn[nH]3)c2n1 (stereo unspecified)	93.2% and 97.1% and 107%	80.6% and 62.3% and 68.6%	54.2% and 56.9% and 63.5%	41.3% and 36% and 37.9%	26.8% and 19.8% and 23.5%	18.6% and 15.3% and 15.6%	0.514 µM and 0.326 µM and 0.46 µM					
CC1COCCN1c1cc(C2(S(C)(=N)=O)CC2)nc(-c2ccnc3[nH]ccc23)n1 (stereo unspecified)	99.8% and 96.6% and 97.3%	93.4% and 96.7% and 96.8%	91.8% and 84.6% and 95.6%	106% and 98.6% (2×)	93.7% and 129% and 92.5%	65.3% and 70.4% and 60.7%	> 10 µM					
CCCS(=O)(=O)Nc1ccc(F)c(C(=O)c2c[nH]c3ncc(-c4ccc(Cl)cc4)cc23)c1F	101% and 91.3% and 97.1%	81% and 90.5% and 83.1%	99.1% and 89.8% and 101%	87.5% and 81% and 76%	78.5% and 68.7% and 87.7%	37.7% and 68.9% and 71%	7.09 µM and > 10 µM					
CC[C@@]1(O)C(=O)OCc2c1cc1n(c2=O)Cc2cc3c(CN(C)C)c(O)ccc3nc2-1	85.2% and 98.8% and 103%		48.6% and 38.9% and 38.2%				0.298 µM and 0.241 µM and 0.249 µM	111% and 105% and 82.9%	80.6% and 108% and 97.9%	113% and 76.5% and 112%	71% and 84.4% and 94.9%	
CCc1c2c(nc3ccc(O)cc13)-c1cc3c(c(=O)n1C2)COC(=O)[C@]3(O)CC	18.4% and 10.6% and 23.2%		24.9% and 13.8% and 31.8%				0.00801 µM and 0.00566 µM and 0.00743 µM	87% and 104% and 96.5%	71.4% and 69.9% and 67.3%	48% and 31.8% and 48.8%	24.3% and 11.3% and 29.4%	
CN(C)c1ccc(Nc2c3ccc(NC(=O)CCN4CCCC4)cc3nc3cc(NC(=O)CCN4CCCC4)ccc23)cc1			99.4% [middle of 12 runs]									> 10
